Laboratory results from patent US10131691B2, “Compositions and methods for specific regulation of pyruvate dehydrogenase kinase” (THE BOARD OF TRUSTEES OF THE LELAND STANFORD JUNIOR …, priority 2011, dated 2018).
No end group written: not given here.

Experiments:
hearts subjected to I/R = assay: Ex vivo cardiac protection from ischemia/reperfusion (Langendorff; infarct size, CPK release); set-up: species or system rat; details: for cardioprotection / biological activity in ex vivo I/R model (in words): CPK release and JNK phosphorylation as markers; for CPK (u/L) / protection from I/R injury: ex vivo I/R; for CPK (u/L): release into perfusate, 1 μM peptide; for protection from I/R injury: n=6
Procedure: An ex vivo model of acute ischemic heart damage was used, which involves a 30 min equilibration period, followed by 30 min of global ischemia, which in turn is followed by 60 min of reperfusion. The hearts were perfused with 1 μM TAT or TAT-conjugated peptide. Normoxic control hearts were subjected to 90 min perfusion in the absence of ischemia. Coronary effluent was collected to determine creatine phosphokinase (CPK) release during the first 30 min of the reperfusion period. At the end of the reperfusion period, hearts were sliced into 1-mm-thick transverse sections and incubated in triphenyltetrazolium chloride solution (TTC, 1% in phosphate buffer, pH 7.4) at 37° C. for 15 min. Infarct size was expressed as a percentage of the risk zone (equivalent to total LV muscle mass) (methods described in Brandman et al., 2007, J. Biol. Chem., 282:4113-4123; Inagaki et al., 2003, Circulation, 108:869-875). […]
(§1) First, I/R-induced infarct size after treatment with ΨPDK or δV1-1 (Inagaki et al., 2003, Circulation, 108:869-875), was smaller than that in hearts treated with the control peptide or with ΨδRACK, the δPKC-specific activator or with δV1-5 (FIG. 6A). Second, similar data were obtained when determining the levels of released creatine phosphokinase (CPK), as a marker of myocardial infarction; CPK levels in the ΨPDK- or δV1-1-treated hearts were similar and were lower than those after treatment with control peptide, ΨδRACK or δV1-5 (FIG. 6B).
(§2) To begin determining the contribution of each of the amino acids on the effect of the peptide, Alanine scanning was used (Brunel et al., 2006, J. Virol., 80:1680-1687; Chen et al., J. Pep. Res., 2000, 56:147-156; Brems et al., 1992, Prot. Eng., 5:527-533) (substituting individual amino acid with an alanine). The resultant ΨPDK peptide analogs were then used in the same model of myocardial infarction, using CPK release and JNK phosphorylation as markers for cardiac injury. CPI release into the perfusates and pJNK in the hearts were determined after I/R in the presence of respective peptides and compared to the levels in hearts subjected to I/R in the presence of the control peptide. None of the peptides having a substitution had any significant biological activity (Table 1).

JNK = JNK phosphorylation in hearts subjected to I/R (Western blot); set-up: species or system rat; details: ex vivo I/R hearts, 1 μM peptide
Procedure: An ex vivo model of acute ischemic heart damage was used, which involves a 30 min equilibration period, followed by 30 min of global ischemia, which in turn is followed by 60 min of reperfusion. The hearts were perfused with 1 μM TAT or TAT-conjugated peptide. Normoxic control hearts were subjected to 90 min perfusion in the absence of ischemia. Coronary effluent was collected to determine creatine phosphokinase (CPK) release during the first 30 min of the reperfusion period. At the end of the reperfusion period, hearts were sliced into 1-mm-thick transverse sections and incubated in triphenyltetrazolium chloride solution (TTC, 1% in phosphate buffer, pH 7.4) at 37° C. for 15 min. Infarct size was expressed as a percentage of the risk zone (equivalent to total LV muscle mass) (methods described in Brandman et al., 2007, J. Biol. Chem., 282:4113-4123; Inagaki et al., 2003, Circulation, 108:869-875).
Rat hearts were homogenized in a buffer containing 210 mM mannitol, 70 mM sucrose, 5 mM MOPS and 1 mM EDTA followed by isolation of the mitochondria fraction (described in Churchill et al., 2008, J. Mol. Cell. Cardiol., 46:278-284) and identified by the presence of VDAC (MitoSciences, Eugene, Oreg., USA). The level of phosphorylated and unphosphorylated JNK1/2 was analyzed in the total fraction using respective specific antibodies (Cell Signaling, Danvers, Mass. and Santa Cruz Biotechnology, CA, USA).
as §1, §2

δPKC = biological target: T1, δPKC (Mus musculus, UniProt P28867); assay: MARCKS phosphorylation in wild-type fibroblasts (Western blot); format: cell-based; details: 20% serum, peptides conjugated to TAT47-57, relative to control peptide
T1 construct: endogenous in cells; host or cells: primary fibroblasts from wild-type mice
Excerpt: (§3) Fibroblasts were isolated from wild-type or δPKC knockout mice (provided by Dr. Robert Messing, Gallo Center, UCSF) as previously described (Disatnik et al., 2004, J. Cell Sci., 117:4469-4479) and maintained in 20% fetal bovine serum.
(§4) Phosphorylation of myristoylated alanine-rich C kinase substrate (MARCKS), a ubiquitous PKC substrate, was monitored by Western blot of total cell lysates, using anti-phosphorylated MARCKS (Cell Signaling, Danvers, Mass.). Anti-MARCKS and anti-δPKC antibodies were obtained from Santa Cruz Biotechnology (Santa Cruz Biotechnology, CA, USA).
(§5) The ΨPDK sequence is found both in PDK and in the PDK-cognate protein, δPKC. It was therefore predicted that ΨPDK mimics inhibitory intra-molecular interaction, and, similar to ΨδRACK, ΨPDK should compete with the inhibitory interaction of PDK and δPKC, and increase δPKC-mediated functions (FIG. 1A). Phosphorylation of myristoylated alanine-rich C-kinase substrate (MARCKS) was used as a marker of PKC activity (Disatnik et al., 2004, J. Cell. Sci., 117:4469-4479). […] To determine the selectivity of the peptides for δPKC, fibroblasts derived from δPKC knock-out mice were also used.

[1] = test system: fibroblasts derived from δPKC knock-out mice; assay: MARCKS phosphorylation in fibroblasts from δPKC knock-out mice; format: cell-based, mouse; details: fibroblasts lacking δPKC
Excerpt: as §3, §4, §5

T1 sequence (P28867 whole entry): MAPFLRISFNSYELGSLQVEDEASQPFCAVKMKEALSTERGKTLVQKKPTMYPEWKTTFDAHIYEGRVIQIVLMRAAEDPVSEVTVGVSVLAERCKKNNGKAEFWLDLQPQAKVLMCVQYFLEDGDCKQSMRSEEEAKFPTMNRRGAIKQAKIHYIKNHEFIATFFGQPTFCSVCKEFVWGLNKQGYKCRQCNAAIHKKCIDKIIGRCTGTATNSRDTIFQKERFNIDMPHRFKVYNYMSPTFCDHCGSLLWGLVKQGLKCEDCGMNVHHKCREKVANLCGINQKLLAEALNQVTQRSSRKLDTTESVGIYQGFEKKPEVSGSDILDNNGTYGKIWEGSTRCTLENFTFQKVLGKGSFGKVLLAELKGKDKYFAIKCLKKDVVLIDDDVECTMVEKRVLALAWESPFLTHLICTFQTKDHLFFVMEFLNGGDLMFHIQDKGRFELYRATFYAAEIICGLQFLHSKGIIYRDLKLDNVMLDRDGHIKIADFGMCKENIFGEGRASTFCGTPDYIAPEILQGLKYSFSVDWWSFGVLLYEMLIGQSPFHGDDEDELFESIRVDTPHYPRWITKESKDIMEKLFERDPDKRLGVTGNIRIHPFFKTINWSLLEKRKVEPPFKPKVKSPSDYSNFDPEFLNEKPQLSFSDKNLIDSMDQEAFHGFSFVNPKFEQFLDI

| Molecule | CPK (u/L) (hearts subjected to I/R) | p-JNK/total JNK (JNK) | other results |
| --- | --- | --- | --- |
| ALS(p)T(p)ER [p199] | 842 ± 258 | 0.6 ± 0.02 | cardioprotection / biological activity in ex vivo I/R model (in words) (hearts subjected to I/R): None of the phosphorylated peptides (p197, 198, 199) affected cardioprotection |
| ALSTEA [p196] | 926 ± 265 | 0.9 ± 0.10 |  |
| ALATER [p193] | 1155 ± 299 | 0.7 ± 0.03 |  |
| ALSTAR [p195] | 913 ± 199 | 0.7 ± 0.10 |  |
| YGRKKRRQRRRGSGALSTER [TAT-GSG-ΨPDK] |  |  | protection from I/R injury (hearts subjected to I/R): 73% |
| ALST(p)ER [p197] | 803 ± 131 | 0.7 ± 0.10 | cardioprotection / biological activity in ex vivo I/R model (in words) (hearts subjected to I/R): None of the phosphorylated peptides (p197, 198, 199) affected cardioprotection |
| AASTER [p192] | 1272 ± 172 | 0.7 ± 0.10 |  |
| GKTLVQ (not fully specified (C-terminus); also: TAT47-57 conjugated via disulfide to C-terminal Cys) [δV1-5, reference compound] |  |  | MARCKS phosphorylation (δPKC): increased MARCKS phosphorylation; MARCKS phosphorylation [1]: increased MARCKS phosphorylation |
| ALSAER [p194] | 886 ± 211 | 0.6 ± 0.10 |  |
| ΨPDK-Cs-sC-TAT: SEQ ID NO. 2 linked to SEQ ID NO. 33 (TAT) via a disulfide bond (chain 1 ALSTER; chain 2 YGRKKRRQRRR; not fully specified; disulfide bond linkage) |  |  | protection from I/R injury (hearts subjected to I/R): 45% |
| CCCCCCCCCCCCCC(=O)O[C@@H]1[C@@H](C)[C@@]2(O)[C@@H](C=C(CO)C[C@]3(O)C(=O)C(C)=C[C@@H]23)[C@@H]2C(C)(C)[C@]12OC(C)=O [PMA, Phorbol 12-myristate 13-acetate, reference compound] |  |  | MARCKS phosphorylation (δPKC): caused increased MARCKS phosphorylation |
| ALS(p)TER [p198] | 1169 ± 293 | 0.9 ± 0.10 | cardioprotection / biological activity in ex vivo I/R model (in words) (hearts subjected to I/R): None of the phosphorylated peptides (p197, 198, 199) affected cardioprotection |
